# Test results as given in patent US8476221B2, “Methods and compositions for the treatment of metabolic disorders” (Halimed Pharmaceuticals, Inc., priority 2011, dated 2013).
# Non-standard residues stand in square brackets, D forms with d. Residues, ends and D or L forms follow the SMILES beside them. *: point of attachment. Tle = CC(C)(C)[C@H](N)C(=O)O; X1 = CCNCCCC(=O)*
# Experiments:
# [1] = Body weight and food intake in Sprague-Dawley and obese Zucker (fa/fa) rats; type: in vivo; settings: for Avg. Wt. Change (g) Days 1-10 / Food Consumption. (g) Days 1-10: 1 mg/kg IV daily Days 1-10; for Avg. Wt. Change (g) Days 11-20 / Food Consumption. (g) Days 11-20: saline Days 11-20 after 1 mg/kg IV daily Days 1-10
# Protocol: Male Sprague-Dawley (SD, Harlan Laboratories) rats (210-220 g at initiation of experiments) and genetically obese Zucker (fa/fa) (ZF, Harlan Laboratories) rats (210-220 g at initiation of experiments) were housed individually under a 12 h:12 h light:dark schedule (lights on at 7:00 AM). All compound administration, animal and food weighing were performed between noon and 1 PM (during the light phase of the animals' circadian illumination schedule). Each rat was provided standard rat chow and water ad libitum throughout the experiments.
# Each animal received either 1 mg/kg HPI-363 dissolved in saline IV (Treated) or saline (Vehicle or Untreated) for ten consecutive days followed by daily injections of saline for ten additional days. At the start of the experiment, each animal was weighed and single-housed with rat chow and water, with subsequent weighing occurring at 24 hr increments for 20 days. For food intake, 100 g of rat chow was placed in each animal's hopper and leftover chow in the hopper was collected and weighed every 24 hr for 20 days at the time of animal weighing. Chow was then replenished to 100 g each day. As a monitor of the general health of the animals, rats were observed twice daily.
# [2] = Toxicity study in monkeys, serum chemistry (cholesterol, triglycerides, liver enzymes); type: in vivo
# Protocol: A study was conducted to evaluate toxicity in monkeys with HPI-363 at doses of 0.05 to 5 mg/kg. The compound was administered as a slow IV push over 20 to 30 seconds. Six animals (3 males and 3 females) approximately 2 years old and weighing 2.1-2.5 kilograms were dosed once daily for 14 days. Blood chemistry was collected on Days 1-15. […] A reduction of 27%-40% in levels of cholesterol and triglycerides respectively from pre-dose was observed over 15 days. The lipid-lowering effect occurred within a 12 hr-period.
# NT2 receptor = NT2 receptor (Homo sapiens, UniProt O95665); settings: receptor binding studies; cited from earlier work
# NT1 receptor = NT1 receptor (Homo sapiens, UniProt P30989); settings: receptor binding studies; cited from earlier work
# NT1 receptor, sequence (P30989 whole entry): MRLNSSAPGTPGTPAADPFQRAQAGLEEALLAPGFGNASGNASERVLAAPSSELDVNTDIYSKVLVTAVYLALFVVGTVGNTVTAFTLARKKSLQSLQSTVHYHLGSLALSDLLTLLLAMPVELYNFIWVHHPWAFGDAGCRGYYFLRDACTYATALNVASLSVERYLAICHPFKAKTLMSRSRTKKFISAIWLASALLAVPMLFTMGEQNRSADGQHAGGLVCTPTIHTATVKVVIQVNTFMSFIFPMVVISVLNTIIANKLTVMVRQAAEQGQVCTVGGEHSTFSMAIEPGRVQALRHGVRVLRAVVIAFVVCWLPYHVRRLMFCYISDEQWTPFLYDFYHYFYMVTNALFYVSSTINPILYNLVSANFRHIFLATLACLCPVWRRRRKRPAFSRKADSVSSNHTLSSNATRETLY
# NT2 receptor, sequence (O95665 whole entry): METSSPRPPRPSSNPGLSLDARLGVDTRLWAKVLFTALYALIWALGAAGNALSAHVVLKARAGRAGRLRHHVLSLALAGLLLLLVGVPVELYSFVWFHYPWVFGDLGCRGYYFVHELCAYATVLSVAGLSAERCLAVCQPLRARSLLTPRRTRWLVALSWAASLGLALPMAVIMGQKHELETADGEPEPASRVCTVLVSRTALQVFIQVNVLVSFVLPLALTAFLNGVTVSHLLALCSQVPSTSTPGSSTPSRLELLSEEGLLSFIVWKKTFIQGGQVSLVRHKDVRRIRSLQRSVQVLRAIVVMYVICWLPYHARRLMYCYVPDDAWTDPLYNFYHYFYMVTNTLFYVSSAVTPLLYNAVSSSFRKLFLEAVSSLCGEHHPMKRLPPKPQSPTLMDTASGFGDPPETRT
Molecule,"General health, observed twice daily ([1]; SD and ZF rats, 20 days)",Avg. Wt. Change (g) Days 1-10 ([1]; Sprague-Dawley (SD) rats),Food Consumption. (g) Days 1-10 ([1]; Sprague-Dawley (SD) rats),Avg. Wt. Change (g) Days 11-20 ([1]; Sprague-Dawley (SD) rats),Food Consumption. (g) Days 11-20 ([1]; Sprague-Dawley (SD) rats),Avg. Wt. Change (g) Days 1-10 ([1]; Zucker fa/fa (ZF) rats),Food Consumption. (g) Days 1-10 ([1]; Zucker fa/fa (ZF) rats),Avg. Wt. Change (g) Days 11-20 ([1]; Zucker fa/fa (ZF) rats),Food Consumption. (g) Days 11-20 ([1]; Zucker fa/fa (ZF) rats),"Food intake ([1]; both SD and ZF rats, 1 mg/kg IV Days 1-10)","Weight gain ([1]; both SD and ZF rats, 1 mg/kg IV Days 1-10, maintained after cessation (Days 11-20))",Time in which the lipid-lowering effect occurred ([2]; 0.05 to 5 mg/kg IV),Effect on cholesterol and triglycerides (serum chemistry) ([2]; 0.05 to 5 mg/kg IV once daily for 14 days),"Liver enzymes ([2]; 0.05 to 5 mg/kg IV once daily for 14 days, normalized within the 15 days of the study)","Reduction in levels of cholesterol from pre-dose ([2]; 0.05 to 5 mg/kg slow IV push once daily for 14 days, over 15 days)",Affinity for the NT2 receptor (NT2 receptor),Affinity for the NT1 receptor (NT1 receptor)
CCNCCCC(=O)N[C@@H](CCCNC(=N)N)C(=O)N1CCC[C@H]1C(=O)N[C@@H](Cc1c[nH]c2ccccc12)C(=O)N[C@H](C(=O)N[C@@H](CC(C)C)C(=O)O)C(C)(C)C [HPI-363] (X1-RPW[Tle]L-OH),No deviations from normal affect,17.4 g,148.5 g,40.0 g,222.0 g,54.6 g,252.7 g,88.5 g,402.0 g,decreased food intake,inhibition of weight gain,≤ 12 h,dose dependent effect,transient rise,27%,,
Lys-(psiCH2NH)-Lys-Pro-Trp-Ter-Leu-Leu-OEt [PD149163],,,,,,,,,,,,,,,,no detectable affinity,has affinity
